Test results from patent US9624278B2, “Protein complex comprising MCM8 and MCM9 proteins and their use” (CENTRE NATIONAL DE LA RECHERCHE SCIENTIFIQUE, priority 2011, dated 2017).

Tests used:
Format in all cases: cell-based, mouse
MCM9 and MCM8 = test: Western blot of WT MEF cells exposed for 24 h to APH; conditions: WT MEFs treated by APH
Experimental: FIG. 34B represents a western blot analysis of WT-(lanes A and C) and MCM9-deficient-(lanes B and D) MEF cells exposed (lanes C and D) or not (lanes A and B) for 24 h to APH for MCM9 (panel 1), MCM8 (panel 2), Chk1-P (panel 3), Chk2 (panel 4) and GAPDH (panel 5) as loading control. […] Rad51 is an essential protein of the homologous recombination pathway that is the main repair mechanisms of DSBs caused by replication fork arrest^25,12. […] For chromatin isolation, MEF cells were harvested, washed with PBS, frozen at −80° C. or directly lysed in CSK buffer (150 mM NaCl, 10 mM HEPES pH 7.5, 300 mM Sucrose, 1 mM MgCl2, 1 mM EDTA, 1 mM ATP.MgCl2, 1 mM DTT, 0.2% Triton X-100, Phosphatase-inhibitors (Calbiochem), protease-inhibitors Leupeptin, Aprotinin and Pepstatin at a concentration of 10 μg/ml) for 10 min on ice in a volume of 1 μl buffer for 2000 cells. For whole cell extract (“WCE”), a sample of the lysate was mixed with two times Laemli SDS buffer and boiled. The lysate was centrifuged at 3′800 g for 5 min at 4° C., the pellet homogenized again in CSK buffer, extracted again for 5 min on ice and centrifuged again and finally solubilized in two times Laemli SDS buffer (1 μl buffer for 5000 cells).

WT MEF cells = test: BrdU incorporation and growth of WT MEF cells treated 24 h with aphidicolin and released
Experimental: (§1) In Xenopus egg extracts, MCM8 and 9 were found essential for efficient DNA replication^4 5. However, in in-vitro systems derived from Xenopus eggs, DNA replication efficiency is at its maximum, as all potential DNA replication origins are activated, leading to an unusual short inter-origin space and an accelerated S phase (less than 20 min). A deficiency in DNA replication could be therefore rapidly detected. In somatic cells, S phase stands for 6-10 hrs, including during mouse early development (Wowlett and Bolton, 1985), J. Embryol. Exp. Morph, 87, 175; Ferreira and Carmon Forseca, 1997, J. Cell Sci, 11, 889). Therefore, defects in DNA replication can be compensated by induction of the store of dormant origins and/or a higher rate of replication. To investigate this possibility, and reveal possible DNA replication weaknesses in KO MEFs the Inventors first performed DNA fiber stretching^24, using a double pulse-labeling method, applying first a CldU pulse (“red” pulse), followed a second IdU pulse (“green” pulse), as in FIG. 29. Replication fork arrests can be detected by measuring the length of the second pulse, which becomes shorter if the fork is blocked or slowing down. […] To reveal whether MCM9 KO cells were more sensitive to replication stress, the Inventors treated MEF cells for 24 hrs with low concentration (1 μM) of aphidicolin (APH), an inhibitor of DNA polymerases that slows down or blocks replication forks. First, the Inventors quantified the global efficiency of DNA replication by measuring the proportion of cells incorporating BrdU. […] The Inventors concluded that KO cells were highly sensitive to replication fork inhibition. When cells were further released from APH treatment, control cells re-establish the original BrdU-intensity within the first 3 hours (FIG. 30, FIGS. 31A-T). […] The Inventors conclude that MCM9 KO cells are highly sensitive to replication stress, and unable to rescue arrested forks, resulting in growth arrest. […]

MCM9-deficient MEF cells = test: BrdU incorporation and growth of MCM9-deficient MEF cells treated 24 h with aphidicolin and released
Experimental: as §1

## C[C@@]1(CO)[C@H](O)CC[C@@]2(C)[C@H]1CC[C@H]1C[C@@H]3C[C@@]12CC[C@]3(O)CO [APH, aphidicolin]
MCM9 and MCM8
  expression of MCM9 and MCM8 at the protein level: stronger expression
WT MEF cells; WT MEF cells, 1 μM aphidicolin, 24 hrs
  BrdU signal in nuclei after the APH treatment: strongly reduced
WT MEF cells; WT MEF cells, 24 h APH then released without drug
  cell growth after the release from APH: resumed growth soon
WT MEF cells; control (WT) MEF cells, released from 24 h APH treatment
  time to re-establish the original BrdU-intensity after release from APH: ≤ 3 h
MCM9-deficient MEF cells; MCM9- (as well as MCM8-) KO MEF cells, 24 h APH then released without drug
  cell growth after the release from APH: died or stopped dividing
MCM9-deficient MEF cells; MCM9-deficient MEF cells, 1 μM aphidicolin, 24 hrs
  BrdU-labeled nuclei after the APH treatment: nearly no BrdU-labeled nuclei
MCM9-deficient MEF cells; surviving MCM9-deficient KO MEF cells, released from 24 h APH treatment
  time until percentage of BrdU-positive cells comparable to before the APH treatment: 48 h
